In US20240123079A1 (Seagen Inc., priority 2021, published 2024):
Read-outs that look alike come from different tables or passages of the source. Blank lines part the entries; values can stand above or below the molecule they belong to.

Key:
human cancer cell lines = assay: Cancer cell direct cytotoxicity assay, panel statement; type: cell-based; details: panel of human cancer cell lines
Procedure: (§1) Bystander activity of ADCs was evaluated using Renca cancer cells and THP1-Dual™ cells (InvivoGen) which contain an IRF-Lucia luciferase reporter. Cells were cultured in RPMI-1640 (Gibco) with 10% heat-inactivated fetal bovine serum, Pen-Strep (100 U/ml-100 μg/ml, Gibco), HEPES (10 mM, Gibco), sodium pyruvate (1 mM, Gibco), MEM non-essential amino acids (1×, Gibco), GlutaMAX (1×, Gibco), and beta-mercaptoethanol (55 μM, Gibco). Renca cells were plated in a 96-well flat bottom tissue culture-treated clear polystyrene plate (Corning Costar #3596) at 50,000 cells per well in 100 μL. On the day following the initial plating, 50,000 THP1-Dual™ cells were added to each well with the indicated concentration of ADC in a total volume of 200 μL. Supernatant was harvested at 48 hours post addition of the THP1-Dual™ cells. To measure Lucia reporter signal, 10 μL of supernatant was combined with 40 μL of QUANTI-Luc™ Luminescence assay reagent (Invivogen PN: rep-qlc1) in a 96-well clear flat bottom tissue culture-treated black polystyrene plate (Corning Costar PN: 3603) and read on a Perkin Elmer Envision plate reader. In some experiments, HEK 293T cells engineered to express a murine protein typically expressed by immune cells (target antigen C— an immune cell antigen) were plated as above instead of Renca tumor cells. Cancer Cell Direct Cytotoxicity Assay
Cancer cells were counted and plated in 40 μL complete growth media in 384-well, white-walled tissue culture treated plates (Corning). Cell plates were incubated at 37° C. and with 5% CO2 overnight to allow the cells to equilibrate. […] The luminescence of the samples was measured using an EnVision Multimode plate reader (Perkin Elmer, Waltham, MA). […]
Compound 12a was conjugated to both targeted and non-binding antibodies using a variety of non-cleavable linkers (12, 17, 19-24) and the resulting ADCs were assessed for their ability to activate THP1-Dual™ reporter cells. […] We also evaluated the ability of these linkers to directly kill cancer cells when conjugated to targeted mAbs binding tumor antigen A or antigen B (CD30).

MDAMB231 = assay: Cancer cell direct cytotoxicity assay (CellTiter-Glo), MDAMB231; type: cell-based; details: Homo sapiens, MDA-MB-231; MDAMB231, 96 h, free compound; read-out: Compound X50
Procedure: as §1
(§2) Cancer cells were counted and plated in 40 μL complete growth media in 384-well, white-walled tissue culture treated plates (Corning). Cell plates were incubated at 37° C. and with 5% CO2 overnight to allow the cells to equilibrate. Stock solutions containing ADCs or free drugs were serially diluted in RPMI-1640+20% fetal bovine serum (FBS). 10 μL of each concentration were then added to each cell plate in duplicate. Cells were then incubated at 37° C. and with 5% CO2 for 96 hours, upon which, the cell plates were removed from the incubator and allowed to cool to room temperature for 30 minutes prior to analysis. […] The luminescence of the samples was measured using an EnVision Multimode plate reader (Perkin Elmer, Waltham, MA). […]

DEL = assay: Cancer cell direct cytotoxicity assay (CellTiter-Glo), DEL; type: cell-based; details: Homo sapiens, 96 h, free compound, read-out: Compound X50
Procedure: as §1, §2

A2058 = assay: Cancer cell direct cytotoxicity assay (CellTiter-Glo), A2058; type: cell-based; details: Homo sapiens; A2058, 96 h, free compound; read-out: Compound X50
Procedure: as §1, §2

MOLM-13 = assay: Cancer cell direct cytotoxicity assay (CellTiter-Glo), MOLM-13; type: cell-based; details: Homo sapiens; MOLM-13, 96 h, free compound; read-out: Compound X50
Procedure: as §1, §2

DELBVR = assay: Cancer cell direct cytotoxicity assay (CellTiter-Glo), DELBVR; type: cell-based; details: Homo sapiens, 96 h, free compound, read-out: Compound X50
Procedure: as §1, §2

Ls174T = assay: Cancer cell direct cytotoxicity assay (CellTiter-Glo), Ls174T; type: cell-based; details: Homo sapiens, 96 h, free compound, read-out: Compound X50
Procedure: as §1, §2

BxPC3 = assay: Cancer cell direct cytotoxicity assay (CellTiter-Glo), BxPC3; type: cell-based; details: Homo sapiens, BXPC-3; BxPC3, 96 h, free compound; read-out: Compound X50
Procedure: as §1, §2

L540cy = assay: Cancer cell direct cytotoxicity assay (CellTiter-Glo), L540cy; type: cell-based; details: Homo sapiens, 96 h, free compound, read-out: Compound X50
Procedure: as §1, §2

[1] = test system: THP1-Dual™ reporter cells; assay: THP1-Dual cell reporter assay (IRF-Lucia luciferase reporter); type: cell-based, human
Summary of the method: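 THP1-Dual monocytic cells (~100,000/well) were exposed to compound for 24 h (ADCs 48 h). Secreted IRF-driven Lucia luciferase in the supernatant was quantified by QUANTI-Luc luminescence.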

786-O = assay: Cancer cell direct cytotoxicity assay (CellTiter-Glo), 786-O; type: cell-based; details: Homo sapiens, 786-0, 96 h, free compound, read-out: Compound X50
Procedure: as §1, §2

Karpas299 = assay: Cancer cell direct cytotoxicity assay (CellTiter-Glo), Karpas299; type: cell-based; details: Homo sapiens, KARPAS-299; Karpas299, 96 h, free compound; read-out: Compound X50
Procedure: as §1, §2

SU-DHL-4 = assay: Cancer cell direct cytotoxicity assay (CellTiter-Glo), SU-DHL-4; type: cell-based; details: Homo sapiens; SU-DHL-4, 96 h, free compound; read-out: Compound X50
Procedure: as §1, §2

[2] = In vivo cytokine assay, plasma of Renca tumor-bearing mice; parameters: species or system mouse
Procedure: Cytokines were measured in mouse plasma harvested at 3, 6, 24, or 48 hours after treatment with compounds or ADCs using a Milliplex MAP mouse cytokine/chemokine magnetic bead panel assay kit (MCYTOMAG-70k custom 11-plex kit: MCP1, MIP1α, MIP1β, TNFα, IFNγ, IL-10, IL-12p70, IL-6, IL-1β, IP10, RANTES) and analyzed using a Luminex™ MAGPIX™ Instrument System. Values that were outside of the standard curve range (<3.2 or […]) were excluded from calculation of the mean values.

Renca cancer cells = assay: Renca tumor model, in vivo anti-tumor activity and weight change; details: Renca tumor-bearing mice
Procedure: In some experiments, Renca tumor cells were engineered to express the indicated murine or human target antigen.
When tumor volumes reached 100 mm^3, the mice were dosed with either compounds or ADCs by intraperitoneal or intravenous injection at the indicated dosing schedule and tumor volumes were monitored twice weekly. Compounds were formulated in 40% PEG400 in saline.
A syngeneic system was used to assess the ability of the STING agonist ADCs to induce immune responses in vivo and drive an anti-tumor immune response. The Renca system is a subcutaneous, mouse renal adenocarcinoma model. Female Balb/c mice were implanted with 2×10^6 Renca cells subcutaneously in the flank on day 0. When mean tumor size of 100 mm^3 (measured by using the formula Volume (mm^3)=0.5*Length*Width^2 where length is the longer dimension) was reached mice were randomized into treatment groups of ≥5 mice per group. Animals were then treated intraperitoneally (ADCs or compounds) or intravenously (compounds) with the indicated treatment every 7 days, for 3 doses total (or as indicated). Tumor length and width and the weight of the animals was measured throughout the study and tumor volume was calculated using the formula above. Animals were followed until the tumor volume reached ˜1000 mm^3; animals were then euthanized.

[3] = Homo sapiens, THP1-Dual; free compounds, 24 h, Lucia reporter signal; read-out: EC50
[4] = Renca tumor-bearing mice, 3 h, 1.86 mg/kg
[5] = Renca tumor-bearing mice, 6 h, 1.86 mg/kg
[6] = Renca tumor-bearing mice, 24 h, 1.86 mg/kg

Structure (SMILES): CCn1nc(C)cc1C(=O)Nc1nc2cc(C(N)=O)cc(OC)c2n1C/C=C/Cn1c(NC(=O)c2cc(C)nn2CC)nc2cc(C(N)=O)cc(OCCCN(C)C(=O)CCN3C(=O)CC(SC[C@H](N)C(=O)O)C3=O)c21 (stereo partly drawn) [Compound 16, S-(1-(3-((3-((5-carbamoyl-1-((E)-4-(5-carbamoyl-2-(1-ethyl-3-methyl-1H-pyrazole-5-carboxamido)-7-methoxy-1H-benzo[d]imidazol-1-yl)but-2-en-1-yl)-2-(1-ethyl-3-methyl-1H-pyrazole-5-carboxamido)-1H-benzo[d]imidazol-7-yl)oxy)propyl)(methyl)amino)-3-oxopropyl)-2,5-dioxopyrrolidin-3-yl)-L-cysteine]
direct cytotoxic activity on cancer cell lines (human cancer cell lines): demonstrated direct cytotoxic activity on a subset of cancer cell lines
IC50 (MDAMB231): > 1000 nM
IC50 (DEL): 4 nM
IC50 (A2058): > 1000 nM
IC50 (MOLM-13): 27 nM
IC50 (DELBVR): 7 nM
IC50 (Ls174T): > 1000 nM
IC50 (BxPC3): > 1000 nM
IC50 (L540cy): 29 nM
EC50 ([1]; Homo sapiens, THP1-Dual, 24 h, free compounds, 24 h, Lucia reporter signal; read-out: EC50): 34 nM
EC50 ([1]; free compounds, 24 h, Lucia reporter signal; read-out: EC50): 52 nM
IC50 (786-O): > 1000 nM
IC50 (Karpas299): > 1000 nM
IC50 (SU-DHL-4): > 1000 nM

EC50 [1, 3]: 1560 nM
Structure (SMILES): CCc1nc(C)oc1C(=O)Nc1nc2cc(C(N)=O)cc(OCCCOC3CN(C(=O)CCN4C(=O)CC(SC[C@H](N)C(=O)O)C4=O)C3)c2n1C/C=C/Cn1c(NC(=O)c2cc(C)nn2CC)nc2cc(C(N)=O)cc(OC)c21 (stereo partly drawn) [Compound 156, S-(1-(3-(3-(3-((5-carbamoyl-1-((E)-4-(5-carbamoyl-2-(1-ethyl-3-methyl-1H-pyrazole-5-carboxamido)-7-methoxy-1H-benzo[d]imidazol-1-yl)but-2-en-1-yl)-2-(4-ethyl-2-methyloxazole-5-carboxamido)-1H-benzo[d]imidazol-7-yl)oxy)propoxy)azetidin-1-yl)-3-oxopropyl)-2,5-dioxopyrrolidin-3-yl)-L-cysteine]

Structure (SMILES): CCn1nc(C)cc1C(=O)Nc1nc2cc(C(N)=O)cc(OC)c2n1C/C=C/Cn1c(NC(=O)c2cc(C)nn2CC)nc2cc(C(N)=O)cc(OCCCN3CCOCC3)c21.O=C(O)C(F)(F)F.O=C(O)C(F)(F)F.O=C(O)C(F)(F)F [Compound A, (E)-1-(4-(5-carbamoyl-2-(1-ethyl-3-methyl-1H-pyrazole-5-carboxamido)-7-(3-morpholinopropoxy)-1H-benzo[d]imidazol-1-yl)but-2-en-1-yl)-2-(1-ethyl-3-methyl-1H-pyrazole-5-carboxamido)-7-methoxy-1H-benzo[d]imidazole-5-carboxamide tris(2,2,2-trifluoroacetate), reference compound]
IL1β in plasma [2, 4]: 1.5 pg/mL
IL12p70 in plasma [2, 4]: 0.2 pg/mL
IL-6 in plasma [2, 4]: 3550 pg/mL
IL-10 in plasma [2, 4]: 0.5 pg/mL
IP10 in plasma [2, 4]: 4780 pg/mL
MCP-1 in plasma [2, 4]: 14500 pg/mL
IFNγ in plasma [2, 5]: 71.8 pg/mL
IL1β in plasma [2, 5]: 0.6 pg/mL
IL12p70 in plasma [2, 5]: 0.2 pg/mL
IL-6 in plasma [2, 5]: 732 pg/mL
IL-10 in plasma [2, 5]: < 3.2 pg/mL
IP10 in plasma [2, 5]: 4980 pg/mL
IFNγ in plasma [2, 6]: < 3.2 pg/mL
IL1β in plasma [2, 6]: 0.3 pg/mL
IL12p70 in plasma [2, 6]: < 3.2 pg/mL
IL-6 in plasma [2, 6]: 16.4 pg/mL
IL-10 in plasma [2, 6]: < 3.2 pg/mL
IP10 in plasma [2, 6]: 890 pg/mL
systemic pro-inflammatory cytokine (IL-6 and TNF) production ([2]; plasma of tumor-bearing mice): induced robust production of IL-6 and TNF
tolerability (Renca cancer cells): less well tolerated
average weight loss after the 2nd dose (Renca cancer cells; q7dx3): 6.2%
EC50 [1, 3]: 3 nM
potency relative to other free compound ([1]; free drug): significantly more potent
